Results from US5278146A, “CRF analogs” (The Salk Institute for Biological Studies, priority 1992, dated 1994).
Where no end group is shown, it is not given here. [ ]: non-standard residue; d: D form. Nle = CCCC[C@H](N)C(=O)O; Nva = CCC[C@H](N)C(=O)O

Tests used:
[1] = In vivo testing (procedure of C. Rivier et al., Science 218, 377): duration of potency and blood pressure; conditions: for Lowering of blood pressure: administered peripherally (where stated)
[2] = tested on: cultured rat pituitary cells; assay: Secretion of ACTH and β-endorphin by cultured rat pituitary cells; assay type: cell-based; conditions: for Stimulation of the secretion of ACTH and β-END-LI: general procedure of Example III
Procedure: The synthetic peptide [D-Glu^20 ]-oCRF is examined for its effects on the secretion of ACTH and β-endorphin vitro and was also in vivo. The potency of synthetic [D-Glu^20 ]-oCRF to stimulate the secretion of ACTH and β-endorphin by cultured rat pituitary cells is measured using the procedure as generally set forth in Endocrinology, 91, 562 (1972) and compared against synthetic oCRF.

[3] = injected peripherally, e.g. intravenously; cited from earlier work
[4] = tested on: ACTH and β-endorphin-like activities (β-END-LI); conditions: in vitro and in vivo; cited from earlier work

Compound	Lowering of blood pressure [1]	Stimulation of the secretion of ACTH and β-END-LI [2]	other results
CC[C@H](C)[C@H](NC(=O)[C@@H](NC(=O)[C@H](CC(=O)O)NC(=O)[C@H](CC(C)C)NC(=O)[C@H](CC(C)C)NC(=O)[C@H](CC(C)C)NC(=O)[C@H](CCCNC(=N)N)NC(=O)[C@H](CC(N)=O)NC(=O)[C@H](CC(N)=O)NC(=O)[C@H](C)NC(=O)[C@H](C)NC(=O)[C@H](CCC(N)=O)NC(=O)[C@H](CCC(=O)O)NC(=O)[C@H](CCCCN)NC(=O)[C@H](CCC(=O)O)NC(=O)[C@H](CCCCN)NC(=O)[C@H](CCC(=O)O)NC(=O)[C@H](CCC(N)=O)NC(=O)[C@H](CCCCN)NC(=O)[C@H](CCCNC(=N)N)NC(=O)[C@H](C)NC(=O)[C@@H](CCC(=O)O)NC(=O)[C@@H](NC(=O)[C@H](CCSC)NC(=O)[C@H](CCCCN)NC(=O)[C@H](CCCNC(=N)N)NC(=O)[C@H](CC(C)C)NC(=O)[C@H](CC(C)C)NC(=O)[C@H](CCC(=O)O)NC(=O)[C@@H](Cc1ccccc1)NC(=O)[C@H](CO)NC(=O)[C@H](CC(C)C)NC(=O)[C@H](CC(=O)O)NC(=O)[C@@H](NC(=O)[C@H](CO)NC(=O)[C@@H](NC(=O)[C@@H]1CCCN1C(=O)[C@@H]1CCCN1C(=O)CNC(=O)[C@@H]1CCC(=O)N1)[C@@H](C)CC)[C@@H](C)CC)[C@@H](C)CC)[C@@H](C)CC)C(N)=O	very significant lowering of blood pressure	stimulates the secretion of ACTH and β-END-LI	–
CCCC[C@H](NC(=O)[C@@H](CCC(=O)O)NC(=O)[C@H](CC(C)C)NC(=O)[C@@H](NC(=O)[C@H](CCC(=O)O)NC(=O)[C@H](CCCNC(=N)N)NC(=O)[C@H](CC(C)C)NC(=O)[C@H](CC(C)C)NC(=O)[C@H](Cc1c[nH]cn1)NC(=O)[C@H](Cc1ccccc1)NC(=O)[C@@H](NC(=O)[C@H](CC(C)C)NC(=O)[C@H](CC(=O)O)NC(=O)[C@H](CC(C)C)NC(=O)[C@H](CO)NC(=O)[C@@H](NC(=O)[C@@H]1CCCN1C(=O)[C@@H]1CCCN1C(=O)[C@H](CCC(=O)O)NC(=O)[C@H](CCC(N)=O)NC(=O)[C@@H](N)CO)[C@@H](C)CC)[C@@H](C)O)C(C)C)C(=O)N[C@H](C(=O)N[C@@H](CCCCN)C(=O)N[C@@H](C)C(=O)N[C@@H](CC(=O)O)C(=O)N[C@@H](CCC(N)=O)C(=O)N[C@@H](CC(C)C)C(=O)N[C@@H](C)C(=O)N[C@@H](CCC(N)=O)C(=O)N[C@@H](CCC(N)=O)C(=O)N[C@@H](C)C(=O)N[C@H](Cc1c[nH]cn1)C(=O)N[C@@H](CO)C(=O)N[C@@H](CC(N)=O)C(=O)N[C@@H](CCCNC(=N)N)C(=O)N[C@@H](CCCCN)C(=O)N[C@@H](CC(C)C)C(=O)N[C@@H](CC(C)C)C(=O)N[C@@H](CC(=O)O)C(=O)N[C@H](C(=O)N[C@@H](C)C(N)=O)[C@@H](C)CC)[C@@H](C)O [[D-Glu^20, Nle^21, D-His^32]-oCRF]	very significant lowering of blood pressure	stimulates the secretion of ACTH and β-END-LI	–
CCCC[C@H](NC(=O)[C@@H](CCC(=O)O)NC(=O)[C@H](CC(C)C)NC(=O)[C@@H](NC(=O)[C@H](CCC(=O)O)NC(=O)[C@H](CCCNC(=N)N)NC(=O)[C@H](CC(C)C)NC(=O)[C@H](CC(C)C)NC(=O)[C@H](Cc1c[nH]cn1)NC(=O)[C@H](Cc1ccccc1)NC(=O)[C@@H](NC(=O)[C@H](CC(C)C)NC(=O)[C@H](CC(=O)O)NC(=O)[C@H](CC(C)C)NC(=O)[C@H](CO)NC(=O)[C@@H](NC(=O)[C@@H]1CCCN1C(=O)[C@@H]1CCCN1C(=O)[C@H](CCC(=O)O)NC(=O)[C@H](CCC(N)=O)NC(=O)[C@@H](N)CO)[C@@H](C)CC)[C@@H](C)O)C(C)C)C(=O)N[C@H](C(=O)N[C@@H](CCCCN)C(=O)N[C@@H](C)C(=O)N[C@@H](CC(=O)O)C(=O)N[C@@H](CCC(N)=O)C(=O)N[C@@H](CC(C)C)C(=O)N[C@@H](C)C(=O)N[C@@H](CCC(N)=O)C(=O)N[C@@H](CCC(N)=O)C(=O)N[C@@H](C)C(=O)N[C@@H](Cc1c[nH]cn1)C(=O)N[C@@H](CO)C(=O)N[C@@H](CC(N)=O)C(=O)N[C@@H](CCCNC(=N)N)C(=O)N[C@@H](CCCCN)C(=O)N[C@@H](CC(C)C)C(=O)N[C@@H](CC(C)C)C(=O)N[C@@H](CC(=O)O)C(=O)N[C@H](C(=O)N[C@@H](C)C(N)=O)[C@@H](C)CC)[C@@H](C)O [[D-Glu^20, Nle^21]-oCRF]	very significant lowering of blood pressure	stimulates the secretion of ACTH and β-END-LI	–
CC[C@H](C)[C@H](NC(=O)[C@H](CC(=O)O)NC(=O)[C@H](CC(C)C)NC(=O)[C@H](CC(C)C)NC(=O)[C@H](CCCCN)NC(=O)[C@H](CCCNC(=N)N)NC(=O)[C@H](CC(N)=O)NC(=O)[C@H](CO)NC(=O)[C@H](Cc1c[nH]cn1)NC(=O)[C@H](C)NC(=O)[C@H](CCC(N)=O)NC(=O)[C@H](CCC(N)=O)NC(=O)[C@H](C)NC(=O)[C@H](CC(C)C)NC(=O)[C@H](CCC(N)=O)NC(=O)[C@H](CC(=O)O)NC(=O)[C@H](C)NC(=O)[C@H](CCCCN)NC(=O)[C@@H](NC(=O)[C@H](CCSC)NC(=O)[C@@H](CCC(=O)O)NC(=O)[C@H](CC(C)C)NC(=O)[C@@H](NC(=O)[C@H](CCC(=O)O)NC(=O)[C@H](CCCNC(=N)N)NC(=O)[C@H](CC(C)C)NC(=O)[C@H](CC(C)C)NC(=O)[C@H](Cc1c[nH]cn1)NC(=O)[C@H](Cc1ccccc1)NC(=O)[C@@H](NC(=O)[C@H](CC(C)C)NC(=O)[C@H](CC(=O)O)NC(=O)[C@H](CC(C)C)NC(=O)[C@H](CO)NC(=O)[C@@H](NC(=O)[C@@H]1CCCN1C(=O)[C@@H]1CCCN1C(=O)[C@H](CCC(=O)O)NC(=O)[C@H](CCC(N)=O)NC(=O)[C@@H](N)CO)[C@@H](C)CC)[C@@H](C)O)C(C)C)[C@@H](C)O)C(=O)N[C@@H](C)C(N)=O [[D-Glu^20]-oCRF]	significant lowering of blood pressure	–	Duration of potency in vivo ([1]; in vivo): longer duration of potency; EC50 ([2]; cultured rat pituitary cells, read-out: Concentration at which half-maximal responses are observed (ACTH and β-endorphin secretion)): ~0.17 nM; Potency relative to the native hormone ([2]; in vitro, compared against synthetic oCRF): about twice as potent as the native hormone; Secretory response to maximal concentrations ([2]; maximal (1-5 nM) concentrations): at a plateau level
Bz-Ser-Leu-Asp-Leu-Thr-D-Phe-His-Leu-Leu-Arg-Glu-Val-Leu-Glu-Nle-Ala-Arg-Ala-Glu-Gln-Leu-Ala-Gln-Gln-Ala-D-His-Ser-Asn-Arg-Lys-Leu-Nle-Glu-Ile-Ile-NH2	very significant lowering of blood pressure	stimulates the secretion of ACTH and β-END-LI	–
H-D-Pro-Pro-Ile-Ser-Leu-Asp-Leu-Thr-D-Phe-His-Leu-Leu-Arg-Glu-Val-Leu-Glu- Nle-Ala-Arg-Ala-Glu-Gln-Leu-Ala-Gln-Gln-Ala-His-Ser-Asn-Arg-Lys-CML-Nle-Ile-Ile-NH2	very significant lowering of blood pressure	stimulates the secretion of ACTH and β-END-LI	–
H-SQEPPISLDLTFHLLREVL[dE][Nle]TK[dA]DQLAQQAHSNRKL[Nle]DIA-NH2 [[D-Glu^20, D-Ala^24, Nle^21,38]-oCRF]	very significant lowering of blood pressure	stimulates the secretion of ACTH and β-END-LI	–
H-SQEPPISLDLTFHLLRE[Nle]L[dE][Nle]AKAEQEAEQA[dH]LNRLLLEEA-NH2 [[Nle^18,21, D-Glu^20, D-His^32]-AHC]	very significant lowering of blood pressure	stimulates the secretion of ACTH and β-END-LI	–
H-SQEPPISLDLT[dF]HLLREML[dE]RAKAEQEAEQAALNRLLLEEA-NH2 [[D-Phe^12, D-Glu^20, Arg^21]-AHC]	very significant lowering of blood pressure	stimulates the secretion of ACTH and β-END-LI	–
H-SQEPPISLDLT[dF]HLLRE[Nle]LE[Nle]AK[dA]EQEAEQAALNRLLLEEA-NH2 [[D-Phe^12, Nle^18,21, D-Ala^24]-AHC]	very significant lowering of blood pressure	stimulates the secretion of ACTH and β-END-LI	–
H-SQ[dY]PPISLDLTFHLLRE[Nle]L[dE][Nva]AK[dA]EQEAEQAALNRLLLEEA-NH2	very significant lowering of blood pressure	stimulates the secretion of ACTH and β-END-LI	–
H-Ser-Gln-Glu-Pro-Pro-Ile-Ser-Leu-Asp-Leu-Thr-D-Phe-Glu-Leu-Leu-Arg-Glu-Met-T-Glu-Ile-Ala-Lys-Ala-Glu-Gln-Glu-Ala-Glu-Gln-Ala-Ala-Leu-Asn-Arg-Lys-Tyr-Leu-Glu-Glu-Val-NH2	very significant lowering of blood pressure	stimulates the secretion of ACTH and β-END-LI	–
H-Ser-Glu-Glu-Pro-Pro-Ile-Ser-Leu-Asp-Leu-Thr-D-Phe-Glu-Lue-Leu-Arg-Glu-Nle-Leu-Glu-Met-Glu-Orn-Ala-Glu-Lys-Glu-Ala-Glu-Gln-Ala-Ala-Leu-Asn-Arg-Leu-Leu-Leu-Glu-Glu-Ala-NH2	very significant lowering of blood pressure	stimulates the secretion of ACTH and β-END-LI	–
H-pGlu-Glu-Pro-Pro-Ile-Ser-Leu-Asp-:-Thr-D-Phe-His-Leu-Leu-Arg-Glu-Val-Leu-Glu-Met-Ala-Arg-D-Ala-Glu-Gln-Leu-Ala-Gln-Gln-Ala-His-Ser-Asn-Arg-Lys-Leu- Met-Glu-Ile-Ile-NH2 [[pGlu^2, D-Phe^12, D-Ala^24]-rCRF(2-41)]	very significant lowering of blood pressure	stimulates the secretion of ACTH and β-END-LI	–
rCRF: rat CRF, homologous hentetracontapeptide of U.S. Pat. No. 4,489,163; same formula as human CRF (SEEPPISLDLTFHLLREVLEMARAEQLAQQAHSNRKLMEII; ends and bridges not checked; UniProt P01143 145-185, looked up)	–	–	Lowering of blood pressure (background) [3]: substantially lower blood pressure; Stimulation of ACTH and β-endorphin secretion / β-END-LI (background) [4]: stimulate ACTH and β-endorphin-like activities
